Reference: US12263171B2, “7-, 8-, and 10-substituted amino triazolo quinazoline derivatives as adenosine receptor antagonists, pharmaceutical compositions and their use” (Merck Sharp & Dohme LLC, priority 2018, dated 2025)

Key:
[1] = target: human A2a adenosine receptor (Homo sapiens (Human), UniProt P29274); assay: A2a receptor affinity radioligand binding assay ([3H] SCH58261, membranes from HEK293 or CHO cells); settings: unstarred values: radioligand binding
How it was run: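 Displacement of tritiated SCH58261 (working dilution 4 nM) from recombinant human A2a receptor membranes (HEK293 or CHO), 60 min at room temperature in Tris pH 7.4/MgCl2 buffer after 15–30 min compound preincubation. Scintillation counting after filtration; normalized percent effect fitted 4-parameter logistic for IC50.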

[2] = target: human A2b adenosine receptor (Homo sapiens (Human), UniProt P29275); assay: A2b radioligand filtration binding assay (tritiated proprietary A2b antagonist, HEK293 membranes); settings: for IC50: unstarred values: radioligand binding; for A2B binding % inh. @ 10000 nM: unstarred
human A2b adenosine receptor, sequence (P29275 whole entry): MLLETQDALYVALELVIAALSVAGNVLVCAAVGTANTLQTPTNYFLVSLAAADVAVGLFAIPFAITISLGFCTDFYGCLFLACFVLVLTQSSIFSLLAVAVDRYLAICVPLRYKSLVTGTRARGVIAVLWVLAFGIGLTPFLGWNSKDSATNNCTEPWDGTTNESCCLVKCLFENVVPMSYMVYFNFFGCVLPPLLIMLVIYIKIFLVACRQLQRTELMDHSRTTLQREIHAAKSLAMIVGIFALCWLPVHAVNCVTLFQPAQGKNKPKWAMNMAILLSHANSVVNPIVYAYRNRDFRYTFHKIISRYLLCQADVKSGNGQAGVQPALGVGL
How it was run: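 Displacement of a tritiated proprietary A2b antagonist from membranes of HEK293 cells recombinantly expressing human A2b receptor, measured by filtration and scintillation counting. Percent effect was normalized to total and non-specific binding and fitted with a 4-parameter logistic to give IC50.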

human A2a adenosine receptor, sequence (P29274 whole entry): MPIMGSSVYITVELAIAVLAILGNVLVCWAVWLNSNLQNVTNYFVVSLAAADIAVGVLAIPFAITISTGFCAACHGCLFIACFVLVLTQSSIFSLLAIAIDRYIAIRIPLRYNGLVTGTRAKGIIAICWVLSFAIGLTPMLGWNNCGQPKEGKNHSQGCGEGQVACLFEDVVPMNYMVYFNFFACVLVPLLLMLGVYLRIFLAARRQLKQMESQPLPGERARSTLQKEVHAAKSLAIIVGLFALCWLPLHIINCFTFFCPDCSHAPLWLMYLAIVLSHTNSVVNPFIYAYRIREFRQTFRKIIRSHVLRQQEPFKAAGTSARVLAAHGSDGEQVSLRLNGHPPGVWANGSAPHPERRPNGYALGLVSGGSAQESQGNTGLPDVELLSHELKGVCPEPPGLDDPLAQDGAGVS

Compound | IC50 [1] [nM] | IC50 [2] [nM] | A2B binding % inh. @ 10000 nM [2] [% inh. @ 10000 nM]
COc1cccc2c1nc(N)n1nc([C@@H]3CCCN(c4cnn(C5CCOCC5)n4)C3)nc21 [Example 72, (R)-7-methoxy-2-(1-(2-(tetrahydro-2H-pyran-4-yl)-2H-1,2,3-triazol-4-yl)piperidin-3-yl)-[1,2,4]triazolo[1,5-c]quinazolin-5-amine] | 0.9 | 119 | –
COc1cccc2c1nc(N)n1nc([C@@H]3CCCN(c4cc(C)n(C)n4)C3)nc21 [Example 74, (R)-2-(1-(1,5-dimethyl-1H-pyrazol-3-yl)piperidin-3-yl)-7-methoxy-[1,2,4]triazolol[1,5-c]quinazolin-5-amine] | 1 | 3.1 | –
COc1cccc2c1nc(N)n1nc([C@@H]3CCCN(c4cnn(C)n4)C3)nc21 [Example 75, (R)-7-methoxy-2-(1-(2-methyl-2H-1,2,3-triazol-4-yl)piperidin-3-yl)-[1,2,4]triazolo[1,5-c]quinazolin-5-amine] | 1 | 11.6 | –
COc1cccc2c1nc(N)n1nc([C@@H]3CCCN(c4nccn4C)C3)nc21 [Example 81, (R)-7-methoxy-2-(1-(1-methyl-1H-imidazol-2-yl)piperidin-3-yl)-[1,2,4]triazolo[1,5-c]quinazolin-5-amine] | 1.4 | 813 | –
COc1cccc2c1nc(N)n1nc([C@@H]3CCCN(c4ccc(=O)n(C(F)F)c4)C3)nc21 [Example 92, (R)-5-(3-(5-amino-7-methoxy-[1,2,4]triazolo[1,5-c]quinazolin-2-yl)piperidin-1-yl)-1-(difluoromethyl)pyridin-2(1H)-one] | 0.7 | 196 | –
COc1cccc2c1nc(N)n1nc([C@@H]3CCCN(c4cc(C)c(=O)n(C)c4)C3)nc21 [Example 93] | 1.5 | 229 | –
COc1cccc2c1nc(N)n1nc([C@@H]3CCCN(c4ccc(=O)n(C)n4)C3)nc21 [Example 98, (R)-6-(3-(5-amino-7-methoxy-[1,2,4]triazolo[1,5-c]quinazolin-2-yl)piperidin-1-yl)-2-methylpyridazin-3(2H)-one] | 1.4 | 691 | –
COc1cccc2c1nc(N)n1nc([C@@H]3CCCN(c4cnc(OC(F)F)c(C)c4)C3)nc21 [Example 100, (R)-2-(1-(6-(difluoromethoxy)-5-methylpyridin-3-yl)piperidin-3-yl)-7-methoxy-[1,2,4]-triazolo[1,5-c]quinazolin-5-amine] | 0.7 | 56.8 | –
COc1cccc2c1nc(N)n1nc([C@@H]3CCCN(c4nccnc4C)C3)nc21 [Example 101, (R)-7-methox-2-(1-(3-methylpyrazin-2-yl)piperidin-3-yl)-[1,2,4]triazolo[1,5-c]quinazolin-5-amine] | 0.5 | 178 | –
COc1cccc2c1nc(N)n1nc([C@@H]3CCCN(c4cnccn4)C3)nc21 [Example 102, (R)-7-methoxy-2-(1-(pyrazin-2-yl)piperidin-3-yl)-[1,2,4]triazolo[1,5-c]quinazolin-5-amine] | 1 | 151 | –
COc1cccc2c1nc(N)n1nc([C@@H]3CCCN(c4cncc(C)n4)C3)nc21 [Example 103, (R)-7-methoxy-2-(1-(6-methylpyrazin-2-yl)piperidin-3-yl)-[1,2,4]triazolo[1,5-c]quinazolin-5-amine] | 1.2 | 159 | –
COc1cccc2c1nc(N)n1nc([C@@H]3CCCN(c4cncc(C(F)(F)F)n4)C3)nc21 [Example 104, (R)-7-methoxy-2-(1-(6-(trifluoromethyl)pyrazin-2-yl)piperidin-3-yl)-[1,2,4]triazolo[1,5-c]quinazolin-5-amine] | 0.1 | 3330 | –
COc1cccc2c1nc(N)n1nc([C@@H]3CCCN(c4cnc(C)cn4)C3)nc21 [Example 106, (R)-7-methoxy-2-(1-(5-methylpyrazin-2-yl)piperidin-3-yl)-[1,2,4]triazolo[1,5-c]quinazolin-5-amine] | 0.1 | 245 | –
COc1cccc2c1nc(N)n1nc([C@@H]3CCCN(c4ccc(C(C)C)nn4)C3)nc21 [Example 107, (R)-2-(1-(6-isopropylpyridazin-3-yl)piperidin-3-yl)-7-methoxy-[1,2,4]triazolo[1,5-c]quinazolin-5-amine] | 2.1 | 275 | –
COc1cccc2c1nc(N)n1nc([C@@H]3CCCN(c4ccc(F)cn4)C3)nc21 [Example 115, (R)-2-(1-(5-fluoropyridin-2-yl)piperidin-3-yl)-7-methoxy-[1,2,4]triazolo[1,5-c]quinazolin-5-amine] | 1.2 | 59.1 | –
COc1cccc2c1nc(N)n1nc([C@@H]3CCCN(c4ncccn4)C3)nc21 [Example 117, (R)-7-methoxy-2-(1-(pyrimidin-2-yl)piperidin-3-yl)-[1,2,4]triazolo[1,5-c]quinazolin-5-amine] | 0.9 | 431 | –
COc1cccc2c1nc(N)n1nc([C@@H]3CCCN(c4cnn(C5CS(=O)(=O)C5)c4)C3)nc21 [Example 121, (R)-3-(4-(3-(5-amino-7-methoxy-[1,2,4]triazolo[1,5-c]quinazolin-2-yl)piperidin-1-yl)-1H-pyrazol-1-yl)thietane 1,1-dioxide] | 3.6 | 284 | –
COc1cccc2c1nc(N)n1nc([C@@H]3CCCN(c4cnn(C5CCS(=O)(=O)CC5)c4)C3)nc21 [Example 122, (R)-4-(4-(3-(5-amino-7-methoxy-[1,2,4]triazolo[1,5-c]quinazolin-2-yl)piperidin-1-yl)-1H-pyrazol-1-yl)tetrahydro-2H-thiopyran 1,1-dioxide] | 0.1 | 58.4 | –
COc1cccc2c1nc(N)n1nc(C3CCCN(c4cnn(C)c4)[C@H]3C)nc21 (some centres unmarked) [Example 128A] | 862 | – | 18
COc1cccc2c1nc(N)n1nc(C3CCCN(c4cnn(C)c4)[C@@H]3C)nc21 (some centres unmarked) [Example 128B] | 6300 | – | 14
COc1cccc2c1nc(N)n1nc([C@H]3CCO[C@H](c4cnn(C)c4)C3)nc21 [Example 139C] | 101 | 1820 | –

Further compounds by falling IC50 [1], results first:

IC50 [1] [nM] | IC50 [2] [nM] | A2B binding % inh. @ 10000 nM [2] [% inh. @ 10000 nM] | Compound
167 | 2460 | – | COc1cccc2c1nc(N)n1nc([C@H]3CCO[C@@H](c4cnn(C)c4)C3)nc21 [Example 139A]
29 | 1980 | – | COc1cccc2c1nc(N)n1nc([C@@H]3CCC[C@H](c4cnn(C)c4)C3)nc21 [Example 136D]
3.6 | 1780 | – | COc1cccc2c1nc(N)n1nc([C@@H]3CCCN(c4cn(C)cn4)C3)nc21 [Example 76, (R)-7-methoxy-2-(1-(1-methyl-1H-imidazol-4-yl)piperidin-3-yl)-[1,2,4]triazolo[1,5-c]quinazolin-5-amine]
3.2 | 1910 | – | COc1cccc2c1nc(N)n1nc([C@@H]3CCO[C@@H](c4cnn(C)c4)C3)nc21 [Example 139B]
2 | 295 | – | COc1cccc2c1nc(N)n1nc([C@@H]3CCCN(c4ccc(=O)n(C)c4)C3)nc21 [Example 88, (R)-5-(3-(5-amino-7-methoxy-[1,2,4]triazolo[1,5-c]quinazolin-2-yl)piperidin-1-yl)-1-methylpyridin-2(1H)-one]
1.5 | 858 | – | COc1cccc2c1nc(N)n1nc([C@@H]3CCCN(c4ccn(C)c(=O)c4)C3)nc21 [Example 87, (R)-4-(3-(5-amino-7-methoxy-[1,2,4]triazolo[1,5-c]quinazolin-2-yl)piperidin-1-yl)-1-methylpyridin-2(1H)-one]
0.8 | 151 | – | COc1cccc2c1nc(N)n1nc([C@@H]3CCCN(c4nn(C)nc4C)C3)nc21 [Example 70, (R)-2-(1-(2,5-dimethyl-2H-1,2,3-triazol-4-yl)piperidin-3-yl)-7-methoxy-[1,2,4]triazolo[1,5-c]quinazolin-5-amine]
0.8 | 1.9 | – | COc1cccc2c1nc(N)n1nc([C@@H]3CCCN(c4cn(CC(F)(F)F)nn4)C3)nc21 [Example 73, (R)-7-methoxy-2-(1-(1-(2,2,2-trifluoroethyl)-1H-1,2,3-triazol-4-yl)piperidin-3-yl)-[1,2,4]triazolo[1,5-c]quinazolin-5-amine]
0.7 | 165 | – | COc1cccc2c1nc(N)n1nc([C@@H]3CCCN(c4cnc(C5CC5)cn4)C3)nc21 [Example 105, (R)-2-(1-(5-cyclopropylpyrazin-2-yl)piperidin-3-yl)-7-methoxy-[1,2,4]triazolo[1,5-c]quinazolin-5-amine]
0.6 | 144 | – | COc1cccc2c1nc(N)n1nc([C@@H]3CCCN(c4ncn(CC(F)(F)F)n4)C3)nc21 [Example 69, (R)-7-methoxy-2-(1-(1-(2,2,2-trifluoroethyl)-1H-1,2,4-triazol-3-yl)piperidin-3-yl)-[1,2,4]triazolo[1,5-c]quinazolin-5-amine]
0.6 | 291 | – | COc1cccc2c1nc(N)n1nc([C@@H]3CCCN(c4ccc(=O)n(C(C)C)c4)C3)nc21 [Example 96, (R)-5-(3-(5-amino-7-methoxy-[1,2,4]triazolo[1,5-c]quinazolin-2-yl)piperidin-1-yl)-1-isopropylpyridin-2(1H)-one]
0.6 | 98.4 | – | COc1cccc2c1nc(N)n1nc([C@@H]3CCCN(c4cc(C(F)(F)F)c(=O)n(C)c4)C3)nc21 [Example 99, (R)-5-(3-(5-amino-7-methoxy-[1,2,4]triazolo[1,5-c]quinazolin-2-yl)piperidin-1-yl)-1-methyl-3-(trifluoromethyl)pyridin-2(1H)-one]
0.2 | 5610 | – | COc1cccc2c1nc(N)n1nc([C@@H]3CCCN(c4nnc5n4CCNC5)C3)nc21 [Example 71, (R)-7-methoxy-2-(1-(5,6,7,8-tetrahydro-[1,2,4]triazolo[4,3-a]pyrazin-3-yl)piperidin-3-yl)-[1,2,4]triazolo[1,5-c]quinazolin-5-amine]
